These are literature values, as cited in patent US6855351B2, “Pesticide formulation containing azadirachtin (not less than 300 ppm) and salanin in a formulated product with neem oil” (T. Stanes and Company Limited, priority 2002, dated 2005).

The structures appear in SMILES notation.

The test system of this data set is mammals. The following applies: in vivo.

Take `C/C=C(\C)C(=O)O[C@H]1C[C@@H](OC(C)=O)[C@@]2(C(=O)OC)CO[C@H]3[C@@H](O)[C@@](C)([C@]45O[C@@]4(C)[C@H]4C[C@@H]5O[C@@H]5OC=C[C@@]54O)[C@H]4[C@]1(CO[C@]4(O)C(=O)OC)[C@@H]32` [Azadirachtin]: the mammalian toxicity entry is listed as “no apparent mammalian toxicity”.
